Assay results reported in US4731109A, “Herbicidal 2-haloacetanilides” (Monsanto Company, priority 1982, dated 1988).

Experiments:
Experiment in all cases: Greenhouse pre-emergence GR15/GR85 selectivity test
Type in all cases: in vivo
corn = system: corn
From the text: (§1) A good grade of top soil is placed in aluminum pans and compacted to a depth of three-eighths to one-half inch from the top of the pan. On the top of the soil is placed a number of seeds or vegetative propagules of various plant species. The soil required to level fill the pans after seeding or adding vegetative propagules is weighed into a pan. The soil and a known amount of the active ingredient applied in a solvent or as a wettable powder suspension are thoroughly mixed, and used to cover the prepared pans. After treatment, the pans are given an initial overhead irrigation of eater, equivalent to one-fourth inch (0.64 cm) rainfall, then watered by subirrigation as need to give adequate moisture for germination and growth. As an alternative procedure, the overhead irrigation may be omitted. Observations are made about 2-3 weeks after seeding and treatment.
(§2) In the discussion and tables of data below, reference is made to herbicide application rates symbolized as "GR15 " and "GR85 "; these rates are given in kilograms per hectare (kg/ha) which are convertible into pounds per acre (lbs/A) by dividing the kg/ha rate by 1.12.
(§3) A further guide to the effectiveness of a chemical as a selective herbicide is the "selectivity factor" ("SF") for a herbicide in given crops and weeds. The selectivity factor is a measure of the relative degree of crop safety and weed injury and is expressed in terms of the GR15 /GR85 ratio, i.e., the GR15 rate for the crop divided by the GR85 rate for the weed, both rates in kg/ha (lb/A). In the tables below, selectivity factors are shown in parenthesis following the GR85 rate for each weed; the symbol "NS" indicates "non-selective". Marginal or undetermined selectivity is indicated by a dash (--).
(§4) In Table IV pre-emergence herbicidal activity data are presented comparing the relative efficacy of the invention compounds and said prior art compounds as selective herbicides against the resistant and troublesome perennial weeds quackgrass and yellow nutsedge in soybeans and corn, respectively. These weeds are commonly associated with such major crops as corn and soybeans. The test data in Table IV were obtained under identical procedural conditions and represent two replicate runs (except for the compound of Example 9 which was present in one comparative test). The test procedure was the same as described for Tables II and III but modified by the application of an initial overhead irrigation equivalent to 1/4" (0.64 cm) rainfall; subsequent watering was accomplished by subirrigation. "NS" means non-selective within the test limits.
(§5) Additionally, pre-emergence herbicidal data from other tests have established that compounds according to this invention also selectively suppress quackgrass, yellow nutsedge and/or other weeds in one or more of the crops cotton, peanuts, bush beans and/or rape. For example, in Table VI are presented data showing the herbicidal selectivity of the compounds of Examples 1 and 2 against quackgrass in rape and snap beans. Unless otherwise noted; greenhouse tests in Table VI and in other tables below involved herbicide treatments by soil incorporation and an initial overhead irrigation followed by subirrigation as described above.

Yellow Nutsedge = system: Yellow Nutsedge
From the text: as §1, with “After treatment, the pans are given an initial overhead irrigation of eater, equivalent to one-fourth inch (0.64 cm) rainfall, then watered by subirrigation as need to give adequate moisture for germination and growth.” left out
as §3
(§6) These weeds are commonly associated with such major crops as corn and soybeans. […] The test procedure was the same as described for Tables II and III but modified by the application of an initial overhead irrigation equivalent to 1/4" (0.64 cm) rainfall; subsequent watering was accomplished by subirrigation. "NS" means non-selective within the test limits.
(§7) Unless otherwise noted; greenhouse tests in Table VI and in other tables below involved herbicide treatments by soil incorporation and an initial overhead irrigation followed by subirrigation as described above.

Quackgrass = system: Quackgrass
From the text: as §1, with “After treatment, the pans are given an initial overhead irrigation of eater, equivalent to one-fourth inch (0.64 cm) rainfall, then watered by subirrigation as need to give adequate moisture for germination and growth.” left out
as §3, §6, §7

soybeans = system: soybeans
From the text: as §1, §2, §3, §4, §5

cotton = conditions: cotton/yellow nutsedge, average of two replicates
From the text: as §1, §2, §3, §5
In one multi-crop test in the greenhouse, the compounds of Examples 1, 9, and 10 were tested against yellow nutsedge in cotton, soybeans, corn and rice; each compound was non-selective with respect to yellow nutsedge in rice. However, markedly high selectivities for yellow nutsedge in cotton, soybeans and corn were shown for each of the compounds in the test; the respective GR15 and GR85 rates for these compounds are shown in Table XII selectivity factors are shown in parenthesis after each crop.

[1] = yellow nutsedge in corn, Table V
[2] = yellow nutsedge in soybeans, Table V
[3] = quackgrass in soybeans, Table V
[4] = yellow nutsedge in corn, Table IV, Replicate #1
[5] = yellow nutsedge in corn, Table IV, Replicate #2
[6] = yellow nutsedge in soybeans, Table IV, Replicate #1
[7] = yellow nutsedge in soybeans, Table IV, Replicate #2
[8] = quackgrass in corn, Table IV, Replicate #2
[9] = in cotton, average of two replicates

SMILES	GR15 (corn; Table V)	GR85 (Yellow Nutsedge; Table V)	selectivity factor (GR15/GR85) (Yellow Nutsedge; [1])	selectivity factor (GR15/GR85) (Yellow Nutsedge; [2])	GR85 (Quackgrass; Table V)	selectivity factor (GR15/GR85) (Quackgrass; quackgrass in corn, Table V)	selectivity factor (GR15/GR85) (Quackgrass; [3])	GR15 (corn; Table IV, Replicate #1)	GR15 (corn; Table IV, Replicate #2)	GR85 (Yellow Nutsedge; Table IV, Replicate #1)	GR85 (Yellow Nutsedge; Table IV, Replicate #2)	selectivity factor (GR15/GR85) (Yellow Nutsedge; [4])	selectivity factor (GR15/GR85) (Yellow Nutsedge; [5])	selectivity factor (GR15/GR85) (Yellow Nutsedge; [6])	selectivity factor (GR15/GR85) (Yellow Nutsedge; [7])	GR85 (Quackgrass; Table IV, Replicate #2)	selectivity factor (GR15/GR85) (Quackgrass; [8])	further results
COCCN(C(=O)CCl)c1c(C)cccc1C(F)(F)F [C, N-(methoxyethyl)-2'-trifluoromethyl-6'-methyl-2-chloroacetanilide, reference compound]	1.3 Kg/Ha	0.28 Kg/Ha	5	> 10	0.28 Kg/Ha	5	> 10											
CCOCCN(C(=O)CCl)c1ccccc1C(F)(F)F [B, N-(ethoxyethyl)-2'-trifluoromethyl-2-chloroacetanilide, reference compound]								1.2 Kg/Ha	0.37 Kg/Ha	0.47 Kg/Ha	0.43 Kg/Ha	2.5	NS (non-selective)	4	4.5	0.64 Kg/Ha	NS (non-selective)	GR85 (Quackgrass; Table IV, Replicate #1): 0.56 Kg/Ha; selectivity factor (GR15/GR85) (Quackgrass; quackgrass in corn, Table IV, Replicate #1): 2; selectivity factor (GR15/GR85) (Quackgrass; quackgrass in soybeans, Table IV, Replicate #1): 3.5; selectivity factor (GR15/GR85) (Quackgrass; quackgrass in soybeans, Table IV, Replicate #2): 3
CCOCCN(C(=O)CCl)c1c(C)cccc1C(F)(F)F [E, N-(ethoxyethyl)-2'-trifluoromethyl-6'-methyl-2-chloroacetanilide, reference compound]	0.67 Kg/Ha	0.22 Kg/Ha	3	4	0.28 Kg/Ha	2.5	3											
COCC(C)N(C(=O)CCl)c1c(C)cccc1C(F)(F)F (stereo not shown) [D, N-(methoxyisopropyl)-2'-trifluoromethyl-6'-methyl-2-chloroacetanilide, reference compound]	2.0 Kg/Ha	0.45 Kg/Ha	4	> 6	1.7 Kg/Ha	1	> 1.5											GR15 (soybeans; Table V): > 2.8 Kg/Ha
COCCN(C(=O)CCl)c1ccccc1C(F)(F)F [A, N-(methoxyethyl)-2'-trifluoromethyl-2-chloroacetanilide, reference compound]								> 2.2 Kg/Ha	2.2 Kg/Ha	1.2 Kg/Ha	1.0 Kg/Ha	> 2	2	> 2	> 2	> 2.2 Kg/Ha	NS (non-selective)	GR85 (Quackgrass; Table IV, Replicate #1, extrapolated value): 2.5 Kg/Ha
C#CCOCN(C(=O)CCl)c1c(C)cccc1C(F)(F)F [Example 8, N--(propargyloxymethyl)-2'-trifluoromethyl-6'-methyl-2-chloroacetanilide]																		GR15 (soybeans; soybeans/quackgrass): > 2.2 kg/ha; GR15 (soybeans; soybeans/yellow nutsedge): 2.2 kg/ha; GR15 (corn; corn/quackgrass): > 2.2 kg/ha; GR15 (corn; corn/yellow nutsedge): > 2.2 kg/ha; GR85 (Yellow Nutsedge; in corn): 0.95 kg/ha; S.F. (GR15/GR85) (Yellow Nutsedge; in corn): 2.5; GR85 (Yellow Nutsedge; [9]): 0.95 kg/ha; S.F. (GR15/GR85) (Yellow Nutsedge; [9]): 2; GR85 (Yellow Nutsedge; in soybeans): 0.5 kg/ha; S.F. (GR15/GR85) (Yellow Nutsedge; in soybeans): 4.5; GR85 (Quackgrass; both corn and soybeans): 0.5 kg/ha; S.F. (GR15/GR85) (Quackgrass; in corn): 4.5; S.F. (GR15/GR85) (Quackgrass; in soybeans): 4.5; GR15 (cotton): 2.0 kg/ha
